# Key:
# [1] = target: CB2 receptors (Homo sapiens, UniProt P34972); conditions: background statement; cited from earlier work
# [2] = test system: human patients; assay: Inventor's observation of onset and duration of therapeutic effect after administration of caryophyllene at the back of the neck; type: in vivo
# Procedure: The inventor has observed rapid therapeutic onset of action, generally, less than 10 to 15 minutes administration of caryophyllene at the back of the neck, with maximal benefit noted well within 30 minutes. In certain embodiments, a prolonged therapeutic effect has been noted, e.g., about 4 to about 12 hours or more, depending on condition and severity of the condition being treated.
# [3] = target: cannabinoid receptor type-1 (CB1) (Homo sapiens, UniProt P21554); conditions: centrally expressed receptor; background statement; cited from earlier work
# Sequence of cannabinoid receptor type-1 (CB1) (P21554 whole entry): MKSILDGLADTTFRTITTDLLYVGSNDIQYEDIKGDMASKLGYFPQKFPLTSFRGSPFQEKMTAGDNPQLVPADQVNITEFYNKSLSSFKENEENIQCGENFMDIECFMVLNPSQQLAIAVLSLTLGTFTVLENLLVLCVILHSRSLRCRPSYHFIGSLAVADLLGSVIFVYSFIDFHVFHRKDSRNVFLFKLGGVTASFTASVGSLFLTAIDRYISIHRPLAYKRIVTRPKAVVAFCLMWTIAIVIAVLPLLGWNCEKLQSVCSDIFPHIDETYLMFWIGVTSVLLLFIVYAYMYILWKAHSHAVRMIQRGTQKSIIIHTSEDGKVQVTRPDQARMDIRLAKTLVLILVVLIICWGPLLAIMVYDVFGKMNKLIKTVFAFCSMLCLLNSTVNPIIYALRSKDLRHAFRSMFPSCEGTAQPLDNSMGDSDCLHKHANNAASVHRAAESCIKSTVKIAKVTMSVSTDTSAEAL
# [4] = test system: human patients; assay: Topical Cari-Derm (3% caryophyllene) on the back of the neck of human patients, case series of Table 1; type: in vivo
# Procedure: (§1) The following patients were treated with a topical caryophyllene formulation (referred to in Table 1 as “Cari-Derm”, which is a topical 3% caryophyllene formulation) administered on the back of the neck on human patients, as more specifically described below in Table 1. The 3% Cari-Derm formulation contained approximately 30 mg of caryophyllene in a unit dose (1 gram).
# [5] = test system: human patients; assay: Response to earlier or current medication as given in the patient history of Table 1; type: in vivo; conditions: patient 11, autism and seizures with poor vision and focus
# Procedure: as §1
# Sequence of CB2 receptors (P34972 whole entry): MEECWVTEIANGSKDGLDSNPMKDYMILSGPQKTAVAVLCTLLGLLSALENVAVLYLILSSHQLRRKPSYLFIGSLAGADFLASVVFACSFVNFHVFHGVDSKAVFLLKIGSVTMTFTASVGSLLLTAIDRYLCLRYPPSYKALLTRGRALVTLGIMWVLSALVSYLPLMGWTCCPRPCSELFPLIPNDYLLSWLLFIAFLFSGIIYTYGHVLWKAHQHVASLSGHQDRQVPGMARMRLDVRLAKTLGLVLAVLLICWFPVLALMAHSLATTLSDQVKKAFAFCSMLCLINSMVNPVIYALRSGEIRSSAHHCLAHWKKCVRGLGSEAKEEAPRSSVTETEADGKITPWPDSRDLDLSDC
compound,measurement,setting,value
"C=C1CC/C=C(\C)CC[C@@H]2[C@@H]1CC2(C)C (relative stereo) [caryophyllene, trans-(1R,9S)-8-Methylene-4,11,11-trimethylbicyclo[7.2.0]undec-4-ene]",action on CB2 receptors,[1],acts on CB2 receptors
same,maximal benefit noted,[2],≤ 30 min
same,therapeutic onset of action,[2]; generally,10 to 15 min
same,binding to cannabinoid receptor type-1 (CB1),[3],does not bind
"CN1CCc2cccc3c2[C@H]1Cc1ccc(O)c(O)c1-3 [Apomorphine, apomorphine]",neck range of motion and pain on adding topical apomorphine,"[4]; patient 14, torticollis with neck pain, apomorphine added after Cari-Derm",improved further.
same,"tremors, focus, talkativeness with added Apomorphine","[4]; patient 20, Parkinson's disease, Apomorphine 5 mg after Cari-Derm",Cari-Derm; further improved
same,"focus, spontaneity, gait after additional Apomorphine","[4]; patient 23, poor focus, impulsivity, gait problems from Parkinson's, additional 5 mg Apomorphine after Cari-Derm",further improvement noted.
"C=C(C)[C@@H]1CCC(C)=C[C@H]1c1c(O)cc(CCCCC)cc1O [CBD, cannabidiol]",patient's comparison of CBD with Cari-Derm for headache,"[4]; patient 35, chronic headaches and ADHD, uses topical CBD cream",CBD worked better.
"COC(=O)C(c1ccccc1)C1CCCCN1 (stereo not shown) [Ritalin, methylphenidate]",agitation on earlier medication,[5],benefit; increased agitation
"amphetamine, dextroamphetamine mixed salts [Adderall]",agitation on earlier medication,[5],benefit; increased agitation
